This experiment concerns the target (Homo sapiens, UniProt P43220). In words: h-GLP-1 activity assay (cAMP HTRF, HEK293 cells with stable expression of human GLP-1). The following applies: relative EC50, 10 nM human GLP-1 set as 100% response, 30 min at 37° C. The format is cell-based. Here is the method: Human GLP-1 agonizing activity was detected in HEK293 cells with stable expression of human GLP-1 by Cisbio cAMP Gs dynamic kit (Catalog #62AM4PEC) according to manufacturer's protocol. Briefly, cells were collected and resuspended in assay buffer containing 0.1% BSA and 0.5 mM of IBMX at concentration to 2.5×10^5 cells/mL. Two μL 5× compound solution and 8 μL cell suspension were added to each well of low-volume 384 white assay plate. After 30 min incubation at 37° C., 5 μL cAMP-d2 working solution and 5 μL anti-cAMP antibody-cryptate were added to each well, and incubate at room temperature for 1 hr. Series dilution of cAMP was used as standard. Human GLP-1 (7-37) was used as positive control and 10 nM human GLP-1 was set as 100% response. HTRF signals were read at 665 and 615 nm with EnVision plate reader and calculated cAMP concentration by interpolation to the standard curve. The EC50 value of the tested compounds was calculated by fitting the dose response curve using a 4-parameter non-linear regression routine and relative EC50 was presented in Table 29.
Background: Time-resolved FRET reads energy transfer from a long-lived donor to a nearby acceptor.

Some results are limits rather than exact numbers.

Sequence of (Homo sapiens, UniProt P43220) (P43220 24-463): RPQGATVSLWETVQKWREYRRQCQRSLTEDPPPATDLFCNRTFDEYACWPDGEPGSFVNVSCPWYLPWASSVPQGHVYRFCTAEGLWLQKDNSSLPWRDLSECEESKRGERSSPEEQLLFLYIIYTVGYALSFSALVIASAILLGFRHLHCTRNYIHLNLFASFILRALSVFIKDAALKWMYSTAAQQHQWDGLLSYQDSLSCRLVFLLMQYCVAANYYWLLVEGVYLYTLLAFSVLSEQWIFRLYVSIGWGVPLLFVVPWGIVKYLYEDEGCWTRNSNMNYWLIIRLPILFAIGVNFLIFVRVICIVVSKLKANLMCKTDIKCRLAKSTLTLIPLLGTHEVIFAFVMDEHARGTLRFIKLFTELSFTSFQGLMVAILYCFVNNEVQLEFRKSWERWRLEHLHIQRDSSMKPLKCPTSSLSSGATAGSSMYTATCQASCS

For orientation: EC50 means the concentration at which the effect is half-maximal. For the compound `Cc1cc(-n2nc3c(c2-n2ccn(-c4ccc5c(cnn5C)c4F)c2=O)[C@H](C)N(C(=O)c2cn4cc([C@@H]5CCOC(C)(C)C5)ccc4c2C2(c4noc(=O)[nH]4)CC2)CC3)ccc1F` (single isomer, unassigned) [Compound 13], the EC50 was below 20 nM. The value for `C[C@H]1c2c(-n3ccn(-c4ccc5c(cnn5C)c4F)c3=O)c(-c3ccc(F)cc3)nn2CCN1C(=O)c1cn2cc([C@@H]3CCOC(C)(C)C3)ccc2c1C1(c2noc(=O)[nH]2)CC1` (single isomer, unassigned) [Compound 14] was below 20 nM. For `Cc1cc(-n2nc3c(c2-n2ccn(-c4ccn5cncc5c4)c2=O)[C@H](C)N(C(=O)c2cn4cc([C@H]5CCOC(C)(C)C5)ccc4c2C2(c4noc(=O)[nH]4)CC2)CC3)cc(C)c1F` (single isomer, unassigned) [Compound 16], the concentration giving a half-maximal response (EC50) lay in the range of 20 to 100 nM.

Consider `Cc1cc(-n2nc3c(c2-n2ccn(-c4ccn5c(C)ncc5c4)c2=O)[C@H](C)N(C(=O)c2cn4cc([C@@H]5CCOC(C)(C)C5)ccc4c2C2(c4noc(=O)[nH]4)CC2)CC3)cc(C)c1F` (single isomer, unassigned) [Compound 17], for which the EC50 is below 20 nM. `Cc1cc(-n2nc3c(c2-n2ccn(-c4ccn5c(C)ncc5c4)c2=O)[C@H](C)N(C(=O)c2cn4cc([C@H]5CCOC(C)(C)C5)ccc4c2C2(c4noc(=O)[nH]4)CC2)CC3)cc(C)c1F` (single isomer, unassigned) [Compound 18] gave an EC50 below 20 nM. The value for `Cc1cc(-n2nc3c(c2-n2ccn(-c4ccc5c(cnn5C)c4F)c2=O)[C@H](C)N(C(=O)c2cn4cc([C@H]5CCOC(C)(C)C5)ccc4c2C2(c4noc(=O)[nH]4)CC2)CC3)cc(C)c1F` (single isomer, unassigned) [Compound 20] was 20 to 100 nM; that for `Cc1cc(-n2nc3c(c2-n2ccn(-c4ccc5c(cnn5C)c4F)c2=O)[C@H](C)N(C(=O)c2cn4cc([C@@H]5CCOC(C)(C)C5)ccc4c2Cc2noc(=O)[nH]2)CC3)cc(C)c1F` (single isomer, unassigned) [Compound 21] was below 20 nM. The value for `Cc1cc(-n2nc3c(c2-n2ccn(-c4ccc5c(cnn5C)c4F)c2=O)[C@H](C)N(C(=O)c2cn4cc([C@H]5CCOC(C)(C)C5)ccc4c2Cc2noc(=O)[nH]2)CC3)cc(C)c1F` (single isomer, unassigned) [Compound 22] was 20 to 100 nM; that for `Cc1cc(-c2nn3c(c2-n2ccn(-c4ccc5c(cnn5C)c4F)c2=O)[C@@H](C)N(C(=O)c2cc4cc([C@@H]5CCOC(C)(C)C5)ccc4n2C2(c4noc(=O)[nH]4)CC2)CC3)cc(C)c1F` (single isomer, unassigned) [Compound 24] was below 20 nM. The result for `Cc1cc(-c2nn3c(c2-n2ccn(-c4ccc5c(cnn5C)c4F)c2=O)[C@H](C)N(C(=O)c2cc4cc([C@@H]5CCOC(C)(C)C5)ccc4n2C2(c4noc(=O)[nH]4)CC2)CC3)cc(C)c1F` (single isomer, unassigned) [Compound 25] reads above 100 nM; that for `Cc1cc(-c2nn3c(c2-n2ccn(-c4ccc5c(cnn5C)c4F)c2=O)[C@H](C)N(C(=O)c2cc4cc([C@@H]5CCOC(C)(C)C5)ccc4n2C2(c4noc(=O)[nH]4)CC2)CC3)ccc1F` (single isomer, unassigned) [Compound 26], below 20 nM. Take `Cc1cc(-c2nn3c(c2-n2ccn(-c4ccc5c(cnn5C)c4F)c2=O)[C@@H](C)N(C(=O)c2cc4cc([C@@H]5CCOC(C)(C)C5)ccc4n2C2(c4noc(=O)[nH]4)CC2)CC3)ccc1F` (single isomer, unassigned) [Compound 27]: the EC50 is above 100 nM. The value for `COc1ccc(-c2nn3c(c2-n2ccn(-c4ccc5c(cnn5C)c4F)c2=O)C(C)N(C(=O)c2cc4cc([C@@H]5CCOC(C)(C)C5)ccc4n2C2(c4noc(=O)[nH]4)CC2)CC3)cc1` (single isomer, unassigned) [Compound 28] was 20 to 100 nM; that for `COCC12CCC(n3ccn(-c4c(-c5ccc(F)cc5)nn5c4[C@H](C)N(C(=O)c4cc6cc([C@@H]7CCOC(C)(C)C7)ccc6n4C4(c6noc(=O)[nH]6)CC4)CC5)c3=O)(CC1)CC2` (single isomer, unassigned) [Compound 29] was 20 to 100 nM. With `C[C@H]1c2c(-n3ccn(-c4ccc5c(cnn5C)c4F)c3=O)c(-c3ccc(F)cc3)nn2CCN1C(=O)c1cc2cc([C@H]3CCOC(C)(C)C3)ccc2n1C1(c2noc(=O)[nH]2)CC1` (single isomer, unassigned) [Compound 31], the EC50 was above 100 nM. The result for `C[C@@H]1c2c(-n3ccn(-c4ccc5c(cnn5C)c4F)c3=O)c(-c3ccc(F)cc3)nn2CCN1C(=O)c1cc2cc([C@H]3CCOC(C)(C)C3)ccc2n1C1(c2noc(=O)[nH]2)CC1` (single isomer, unassigned) [Compound 32] reads above 100 nM; that for `C[C@H]1c2c(-n3ccn(-c4ccc5c(cnn5C)c4F)c3=O)c(-c3ccc(F)cc3)nn2CCN1C(=O)c1cc2cc([C@@H]3CCOC(C)(C)C3)ccc2n1C1(c2noc(=O)[nH]2)CC1` (single isomer, unassigned) [Compound 33], below 20 nM. The result for `C[C@@H]1c2c(-n3ccn(-c4ccc5c(cnn5C)c4F)c3=O)c(-c3ccc(F)cc3)nn2CCN1C(=O)c1cc2cc([C@@H]3CCOC(C)(C)C3)ccc2n1C1(c2noc(=O)[nH]2)CC1` (single isomer, unassigned) [Compound 34] reads above 100 nM.

Take `C[C@H](c1ccc(F)cc1)n1nc2c(c1-n1ccn(-c3ccc4c(cnn4C)c3F)c1=O)[C@H](C)N(C(=O)c1cc3cc([C@@H]4CCOC(C)(C)C4)ccc3n1C1(c3noc(=O)[nH]3)CC1)CC2` (single isomer, unassigned) [Compound 38]: the half-maximal effective concentration (EC50) was below 20 nM. The result for `C[C@H]1c2c(nn([C@@H](C)c3ccc(F)cc3)c2-n2ccn(-c3ccc4c(cnn4C)c3F)c2=O)CCN1C(=O)c1cc2cc([C@H]3CCOC(C)(C)C3)ccc2n1C1(c2noc(=O)[nH]2)CC1` (single isomer, unassigned) [Compound 39] reads above 100 nM. The value for `C[C@H]1c2c(nn([C@@H](C)c3ccc(F)cc3)c2-n2ccn(-c3ccc4c(cnn4C)c3F)c2=O)CCN1C(=O)c1cc2cc([C@@H]3CCOC(C)(C)C3)ccc2n1C1(c2noc(=O)[nH]2)CC1` (single isomer, unassigned) [Compound 40] was below 20 nM; that for `C[C@H](c1ccc(F)cc1)n1nc2c(c1-n1ccn(-c3ccc4c(cnn4C)c3F)c1=O)[C@H](C)N(C(=O)c1cc3cc([C@H]4CCOC(C)(C)C4)ccc3n1C1(c3noc(=O)[nH]3)CC1)CC2` (single isomer, unassigned) [Compound 41] was above 100 nM; that for `C[C@H]1c2c(nn(C3CCC(F)(F)CC3)c2-n2ccn(-c3ccc4c(cnn4C)c3F)c2=O)CCN1C(=O)c1cc2cc([C@H]3CCOC(C)(C)C3)ccc2n1C1(c2noc(=O)[nH]2)CC1` (single isomer, unassigned) [Compound 43] was above 100 nM. The result for `C[C@H]1c2c(nn(C3CCC(F)(F)CC3)c2-n2ccn(-c3ccc4c(cnn4C)c3F)c2=O)CCN1C(=O)c1cc2cc([C@@H]3CCOC(C)(C)C3)ccc2n1C1(c2noc(=O)[nH]2)CC1` (single isomer, unassigned) [Compound 44] reads below 20 nM. On to `Cc1cc(-n2nc3c(c2-n2ccn(-c4ccc5c(cnn5C)c4F)c2=O)[C@H](C)N(C(=O)c2cc4cc([C@H]5CCOC(C)(C)C5)ccc4n2Cc2cnc(O)s2)CC3)cc(C)c1F` (single isomer, unassigned) [Compound 45], for which the concentration for a half-maximal effect (EC50) was above 100 nM. The value for `Cc1cc(-n2nc3c(c2-n2ccn(-c4ccc5c(cnn5C)c4F)c2=O)[C@H](C)N(C(=O)c2cc4cc([C@@H]5CCOC(C)(C)C5)ccc4n2Cc2cnc(O)s2)CC3)cc(C)c1F` (single isomer, unassigned) [Compound 46] was 20 to 100 nM; that for `C[C@@H]1c2c(-n3ccn(-c4ccc5c(cnn5C)c4F)c3=O)c(-c3ccc(F)c(Cl)c3)nn2CCN1C(=O)c1cc2cc([C@@H]3CCOC(C)(C)C3)ccc2n1C1(c2noc(=O)[nH]2)CC1` (single isomer, unassigned) [Compound 49] was below 20 nM; that for `C[C@H]1c2c(-n3ccn(-c4ccc5c(cnn5C)c4F)c3=O)c(-c3ccc(F)c(Cl)c3)nn2CCN1C(=O)c1cc2cc([C@@H]3CCOC(C)(C)C3)ccc2n1C1(c2noc(=O)[nH]2)CC1` (single isomer, unassigned) [Compound 50] was above 100 nM. The result for `C[C@@H]1c2c(-n3ccn(-c4ccc5c(cnn5C)c4F)c3=O)c(-c3cc(Cl)c(F)c(Cl)c3)nn2CCN1C(=O)c1cc2cc([C@@H]3CCOC(C)(C)C3)ccc2n1C1(c2noc(=O)[nH]2)CC1` (single isomer, unassigned) [Compound 51] reads below 20 nM; that for `C[C@H]1c2c(-n3ccn(-c4ccc5c(cnn5C)c4F)c3=O)c(-c3cc(Cl)c(F)c(Cl)c3)nn2CCN1C(=O)c1cc2cc([C@@H]3CCOC(C)(C)C3)ccc2n1C1(c2noc(=O)[nH]2)CC1` (single isomer, unassigned) [Compound 52], above 100 nM; that for `COCC12CCC(n3ccn(-c4c(-c5ccc(F)cc5)nn5c4[C@H](C)N(C(=O)c4cc6cc(C7CCOCC7)ccc6n4Cc4noc(=O)[nH]4)CC5)c3=O)(CC1)CC2` (single isomer, unassigned) [Compound 53], above 100 nM. The result for `C[C@H]1c2c(nn(C34CC(C3)C4)c2-n2ccn(-c3ccc4c(cnn4C)c3F)c2=O)CCN1C(=O)c1cc2cc([C@H]3CCOC(C)(C)C3)ccc2n1C1(c2noc(=O)[nH]2)CC1` (single isomer, unassigned) [Compound 60] reads below 20 nM.

The values above are taken from patent US12037339B2, “Substituted imidazoles as GLP-1 receptor agonists” (Eccogene Inc., priority 2020, dated 2024).
